From patent US20170273922A1, “UREA AND BIS-UREA BASED COMPOUNDS AND ANALOGUES THEREOF USEFUL IN THE TREATMENT OF ANDROGEN RECEPTOR MEDIATED DISEASES OR DISORDERS” (THE ROYAL INSTITUTION FOR THE ADVACEMENT OF LEARNING/MCGILL …, priority 2014, published 2017)

Experiments:
[1] = MTT assay (cytotoxicity), LNCaP cells; assay type: cell-based; settings: human, LNCaP cells
Method: (§1) MTT assays: LNCaP, 22Rv1, Du145, H1975, A549, MB231 and MCF-7 cells are maintained in RPMI 1640 supplemented with 10% FBS. Cells were seeded at a density of 6-7×10^3 cells per well in 96-well plates. After overnight incubation, cells in fresh RPMI 1640 supplemented with 10% FBS were exposed to DMSO vehicle control or test compounds at designated concentrations for 72 h. Viable cells were evaluated by MTT assays. Experiments were performed in triplicate and repeated at least twice.

[2] = MTT assay (cytotoxicity), 22Rv1 cells; assay type: cell-based; settings: human, 22Rv1 cells, 72 h treatment, Table 6.1
Method: as §1

| SMILES | IC50 at 72 h ([1]; 72 h treatment, Table 6.1) [µM] | IC50 at 72 h [2] [µM] | IC50 at 72 h ([1]; 72 h, Table 2.4) [µM] |
| --- | --- | --- | --- |
| O=C(Nc1cccc(NC(=O)c2cccc(F)c2)c1)Nc1cccc(C(F)(F)F)c1 [Compound 914] | 7.3 | 8.7 |  |
| O=C(Nc1cccc(NC(=O)c2ccc(F)cc2)c1)Nc1cccc(C(F)(F)F)c1 [Compound 915] | 9 | 10.6 |  |
| O=C(Nc1cccc(C(F)(F)F)c1)Nc1cc(NC(=O)c2ccccc2F)cc(C(F)(F)F)c1 [Compound 928] | 2.4 | 2 |  |
| O=C(Nc1cccc(C(F)(F)F)c1)Nc1ccc(F)c(NC(=O)c2cc(Cl)ccc2F)c1 [Compound 929] | 5.5 | 5.7 |  |
| O=C(Nc1cccc(C(F)F)c1)Nc1ccc(NC(=O)c2cc(F)ccc2F)c(C(F)(F)F)c1 [Compound 930] | 8.2 | 5.6 |  |
| N#Cc1ccc(NC(=O)NCC(=O)c2cccc(C(F)(F)F)c2)cc1C(F)(F)F [Compound 937] |  |  | 7.3 |
| O=C(Nc1cccc(C(F)F)c1)Nc1ccc(NC(=O)c2cc(C(F)(F)F)ccc2F)c(C(F)(F)F)c1 [Compound 941] | 5.4 | 3.6 |  |
| O=C(Nc1cccc(C(F)(F)F)c1)Nc1ccc(F)c(NC(=O)c2cc(F)ccc2F)c1 [Compound 942] | 5.7 | 7.1 |  |
| O=C(Nc1cccc(C(F)(F)F)c1)Nc1ccc(F)c(NC(=O)c2ccc(F)cc2F)c1 [Compound 943] | 6.3 | 13 |  |
| O=C(Nc1cccc(C(F)(F)F)c1)Nc1ccc(F)c(NC(=O)c2cc(C(F)(F)F)ccc2F)c1 [Compound 944] | 5.5 | 4.5 |  |
| O=C(Nc1cccc(C(F)F)c1)Nc1ccc(NC(=O)c2ccc(F)cc2F)c(C(F)(F)F)c1 [Compound 945] | 7.3 | 7.1 |  |
| O=C(Nc1cccc(C(F)(F)F)c1)Nc1ccc(F)c(NC(=O)c2cccc(F)c2)c1 [Compound 946] | 8.4 | 9.5 |  |
| O=C(Nc1cccc(C(F)(F)F)c1)Nc1ccc(F)c(NC(=O)c2ccc(F)cc2)c1 [Compound 947] | 12.7 | 15.9 |  |
| O=C(Nc1cccc(C(F)(F)F)c1)Nc1ccc(F)c(NC(=O)c2cccc(F)c2F)c1 [Compound 948] | 8 | 17.1 |  |
| O=C(Nc1cccc(C(F)(F)F)c1)Nc1cc(C(=O)O)cc(C(F)(F)F)c1 [Compound 949] | 2.9 | 32.9 |  |
| O=C(Nc1cccc(C(F)(F)F)c1)Nc1ccc(F)c(NC(=O)Nc2ccccc2F)c1 [Compound 950] | 3.8 | 7.8 |  |

| SMILES | IC50 at 72 h ([1]; 72 h treatment, Table 6.1) [µM] | IC50 at 72 h [2] [µM] | IC50 at 72 h ([1]; 72 h, Table 2.4) [µM] |
| --- | --- | --- | --- |
| O=C(Nc1cccc(C(F)(F)F)c1)Nc1ccc(F)c(NC(=O)c2cc(I)ccc2F)c1 [Compound 951] | 4 | 9.8 |  |
| O=C(Nc1cccc(C(F)(F)F)c1)Nc1ccc(NC(=O)c2cc(I)ccc2F)c(C(F)(F)F)c1 [Compound 952] | 5.2 | 7.8 |  |
| O=C(Nc1cccc(C(F)(F)F)c1)Nc1cc(NC(=O)Nc2cccc(C(F)(F)F)c2)cc(C(F)(F)F)c1 [Compound 953] | 1.4 | 0.9 |  |
| O=C(Nc1ccc(C(F)(F)F)cc1)Nc1cc(NC(=O)Nc2ccc(C(F)(F)F)cc2)cc(C(F)(F)F)c1 [Compound 955] | 1.5 | 0.9 |  |
| O=C(Nc1ccc(C(F)(F)F)cc1)Nc1ccc(F)c(NC(=O)c2ccc(F)cc2F)c1 [Compound 956] | 3.5 | 9.5 |  |
| O=C(Nc1ccc(F)c(NC(=O)c2cc(C(F)(F)F)ccc2F)c1)Nc1ccccc1C(F)(F)F [Compound 959] | 13.5 | 8.7 |  |
| O=C(Nc1ccc(F)c(NC(=O)c2ccc(F)cc2F)c1)Nc1ccccc1C(F)(F)F [Compound 960] |  | 5.7 |  |
| O=C(Nc1cccc(C(F)(F)F)c1)Nc1ccc(F)cc1NC(=O)c1ccc(F)cc1F [Compound 961] | 6.2 | 10.1 |  |
| O=C(Nc1ccc(Br)cc1)Nc1cc(F)ccc1NC(=O)c1ccc(F)cc1F [Compound 962] | 5.3 | 4.9 |  |
| O=C(Nc1ccc(Br)cc1)Nc1ccc(F)c(NC(=O)c2cc(C(F)(F)F)ccc2F)c1 [Compound 963] | 2.4 | 4.7 |  |
| O=C(Nc1cccc(F)c1)Nc1cc(NC(=O)Nc2cccc(F)c2)cc(C(F)(F)F)c1 [Compound 964] | 2.4 | 1.8 |  |
| O=C(Nc1cccc(F)c1)Nc1cc(F)ccc1NC(=O)c1ccc(F)cc1F [Compound 965] | 4.3 | 7.7 |  |
| O=C(Nc1cccc(NC(=O)Nc2cccc(C(F)(F)F)c2)c1)Nc1cccc(C(F)(F)F)c1 [Compound 966] |  | 6.6 |  |
| O=C(Nc1cccc(C(F)(F)F)c1)Nc1ccccc1NC(=O)Nc1cccc(C(F)(F)F)c1 [Compound 967] | 2.7 | 3.1 |  |
| N#Cc1ccc(NC(=O)NCC(=O)c2ccc(F)cc2)cc1C(F)(F)F [Compound 982] |  |  | 4.6 |
